Where two headings read alike, the source gives them in different places.
Assays:
[1] = target: T1, truncated human 11β-HSD-1 enzyme (24-287AA) (Homo sapiens, UniProt P28845); test: Human 11β-HSD-1 enzymatic SPA assay; format: biochemical; settings: human enzyme, SPA
T1 construct: truncated human 11β-HSD-1 enzyme (24-287AA); made in house; host or cells: E. coli (lysate)
Experimental: The ability of test compounds to inhibit human 11β-HSD-1 enzymatic activity in vitro was evaluated in a Scintillation Proximity Assay (SPA). […] The reaction was stopped by adding a non-specific 11β-HSD inhibitor, 18β-glycyrrhetinic acid. The tritiated cortisol was captured by a mixture of an anti-cortisol monoclonal antibody and SPA beads coated with anti-mouse antibodies. The reaction plate was shaken at room temperature and the radioactivity bound to SPA beads was then measured on a β-scintillation counter. The 11β-HSD-1 assay was carried out in 96-well microtiter plates in a total volume of 220 μl. […] In order to drive the reaction in the forward direction, 1 mM G-6-P was also added. Solid compound was dissolved in DMSO to make a 10 mM stock followed by a subsequent 10-fold dilution with 3% DMSO in Tris/EDTA buffer (pH 7.4). 22 μl of titrated compounds was then added in triplicate to the substrate. Reactions were initiated by the addition of 10 μl of 0.1 mg/ml E. coli lysates overexpressing 11β-HSD-1 enzyme. After shaking and incubating plates for 30 minutes at room temperature, reactions were stopped by adding 10 μl of 1 mM glycyrrhetinic acid. The product, tritiated cortisol, was captured by adding 10 μl of 1 μM monoclonal anti-cortisol antibodies and 100 μl SPA beads coated with anti-mouse antibodies. After shaking for 30 minutes, plates were read on a liquid scintillation counter Topcount. Percent inhibition was calculated based on the background and the maximal signal. Wells that contained substrate without compound or enzyme were used as the background, while the wells that contained substrate and enzyme without any compound were considered as maximal signal. Percent of inhibition of each compound was calculated relative to the maximal signal and IC50 curves were generated. This assay was applied to 11β-HSD-2 as well, whereby tritiated cortisol and NAD^+ were used as substrate and cofactor, respectively.

[2] = target: 11βHSD-1 (Homo sapiens, UniProt P28845); settings: cited from earlier work
11βHSD-1, sequence (P28845 whole entry, species assumed): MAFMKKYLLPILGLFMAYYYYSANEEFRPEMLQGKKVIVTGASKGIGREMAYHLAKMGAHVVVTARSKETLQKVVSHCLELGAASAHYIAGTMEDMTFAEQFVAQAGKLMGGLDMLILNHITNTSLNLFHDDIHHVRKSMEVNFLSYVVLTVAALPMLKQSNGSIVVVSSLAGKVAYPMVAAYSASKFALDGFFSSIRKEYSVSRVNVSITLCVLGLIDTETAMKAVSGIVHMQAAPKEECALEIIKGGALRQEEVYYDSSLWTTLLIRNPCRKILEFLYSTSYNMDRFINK

[3] = Table 1, Barf et al., Drugs of the Future 31(3), 231-243 (2006), read-out: IC50
[4] = Table 3, Boyle et al., Expert Opin. Ther. Patents 19(6), 801-825 (2009), read-out: IC50
[5] = Table 4, Webster et al., Expert Opin. Ther. Patents 17(12), 1407-1422 (2007), read-out: Ki
[6] = Table 4, Webster et al., Expert Opin. Ther. Patents 17(12), 1407-1422 (2007), read-out: IC50
[7] = Table 5, Boyle, Current Opinion in Drug Discovery & Development 2008, 11(4), 495-511, read-out: IC50

T1 sequence (P28845 24-287): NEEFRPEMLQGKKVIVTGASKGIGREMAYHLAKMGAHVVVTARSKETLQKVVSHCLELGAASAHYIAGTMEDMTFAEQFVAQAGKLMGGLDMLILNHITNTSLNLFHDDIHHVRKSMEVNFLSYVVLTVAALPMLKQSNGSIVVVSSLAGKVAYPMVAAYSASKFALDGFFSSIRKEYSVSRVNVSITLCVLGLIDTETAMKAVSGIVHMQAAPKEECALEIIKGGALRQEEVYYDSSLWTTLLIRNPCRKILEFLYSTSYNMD

## C[S+]([O-])[C@]12C[C@@H]3C[C@H](C1)[C@@H](NC(=O)C(C)(C)Oc1ccc(F)cc1Cl)[C@@H](C3)C2 (stereo partly shown) [2-(2-chloro-4-fluorophenoxy)-2-methyl-N-[(E)-5-(methylsulfinyl)-2-adamantyl]propanamide]
[1]
  IC50: 28 nM

## CC1(C)C(=O)N(C2C3CC4CC2CC(C(N)=O)(C4)C3)CC1COc1ccc(-n2ccnc2)cc1 (stereo not shown) [(E)-4-(4-{[4-(1H-imidazol-1-yl)phenoxy]methyl}-3,3-dimethyl-2-oxopyrrolidin-1-yl)adamantane-1-carboxamide]
[1]
  IC50: 76 nM

## O=C(O)C12CC3CC(C1)C(NC(=O)C1(c4ccccc4)CC1)C(C3)C2 (stereo not shown) [(E)-4-[(1-phenyl-cyclopropanecarbonyl)-amino]-adamantane-1-carboxylic acid]
[1]
  IC50: 102 nM

## C[C@H](CCC(=O)O)[C@H]1CC[C@H]2[C@@H]3[C@H](O)C[C@@H]4C[C@H](O)CC[C@]4(C)[C@H]3CC[C@]12C [Example 490]
[2]
  IC50: 2800 nM

## O=C1CC(c2ccccc2)Oc2ccccc21 (stereo not shown) [Example 497]
[2]; [3]
  IC50: 18000 nM

## Cc1c(Cl)cccc1S(=O)(=O)Nc1nc(CC(=O)N2CCN(C)CC2)cs1 [Example 500]
[2]
  IC50: 96 nM

## CCCC(=O)Cc1csc(NS(=O)(=O)c2cccc(Cl)c2C)n1 [Example 502]
[2]; [3]
  IC50: 14 nM

## CC(C)c1nsc(NS(=O)(=O)c2ccc(Oc3ccccc3)cc2)n1 [Example 503]
[2]; [3]
  IC50: 219 nM

## Cc1c(Cl)cccc1S(=O)(=O)Nc1ccc2c(c1)nc(C)n2C [Example 505]
[2]; Table 1, @ 10 μM
  % @ 10 μM: 110% @ 10

## COc1cc(-c2nnc(C34CC5CC(CC(C5)C3)C4)n2C)cc(OC)c1OC [Example 507]
[2]; [3]
  IC50: < 10 nM

## CC(C)(C(=O)NC1C2CC3CC(C2)CC1C3)c1ccc(F)cc1 (stereo not shown) [Example 512]
[2]; [3]
  IC50: < 1000 nM

## O=C(c1ccc(-c2ccccc2[N+](=O)[O-])o1)N1CC[C@@H]2CCCC[C@@H]2C1 [Example 514]
[2]; [3]
  IC50: 7.7 nM

## O=C(CS(=O)(=O)N1CCCC1)c1ccc(F)cc1 [Example 519]
[2]; [3]
  IC50: 94 nM

## O=C(Cc1ccc(Cl)cc1)c1ccc(Br)cc1 [Example 520]
[2]; [3]
  IC50: 77 nM

## CC(=O)Nc1ccc(OCC(=O)c2ccc(Cl)cc2)cc1 [Example 521]
[2]; [3]
  IC50: 153 nM

## O=C(c1ccc(OC(F)(F)F)cc1)C1CCN(C(=O)c2ccc(F)cc2)CC1 [Example 523]
[2]; [3]
  IC50: 50 nM

## CC(C)[C@@H]1CC[C@@H](C)C[C@@H]1O [Example 524]
[2]; read-out: IC50
  IC50: 35000 nM

## C[C@H](NC1=NC(=O)C(C)(C(F)(F)F)S1)c1ccccc1F (stereo partly shown) [Example 527]
[2]
  IC50: 33 nM

## CC(CC(F)(F)F)c1nnc(C23CCC(c4nnc(-c5ccccc5C(F)(F)F)n4C)(CC2)CC3)o1 (stereo not shown) [Example 531]
[2]; [4]
  IC50: 9 to 100 nM

## CCOc1cc(NC(C)=O)ccc1-c1nnc(N(C)c2ccc(F)cc2)n1C [Example 532]
[2]; [4]
  IC50: 3.4 nM

## CC1(C2CC2)Cc2nnc(-c3ccccc3Cl)n2CCS1 (stereo not shown) [Example 534]
[2]; Table 3, @ 39 nM
  % @ 39 nM: 71.8% @ 39

## N#Cc1ccccc1CSc1nc(O)c(Cl)c2ccc(Cl)cc12 [Example 537]
[2]; [4]
  IC50: 2 nM

## CCSc1nc(N2CCOC(C(=O)O)C2)ccc1C(=O)NC1C2CC3CC(C2)CC1C3 (stereo not shown) [Example 547]
[2]; [4]
  IC50: 6 nM

## O=C(NC1C2CC3CC(C2)CC1C3)[C@H]1CCCN1S(=O)(=O)c1ccc(Cl)cc1 (stereo partly shown) [Example 548]
[2]; [4]
  IC50: < 0.03 nM

## O=C(NC1C2CC3CC1CC(O)(C3)C2)c1ccc(Oc2ccc(Cl)cn2)cc1 (stereo not shown) [Example 551]
[2]; [4]
  IC50: ~70 nM

## Cc1cc(Cl)ccc1OCCCC(=O)N(C)C1C2CC3CC(C2)C(CO)C1C3 (stereo not shown) [Example 555]
[2]; [4]
  IC50: 1 nM

## CC1(C2CC2)CN(C2C3CC4CC2CC(O)(C4)C3)C(=O)N1C1CC1 (stereo not shown) [Example 557]
[2]; [4]
  IC50: 3 nM

## CN1C(=O)N(C2C3CC4CC(C3)CC2C4)C[C@@H]1C(C)(C)C (stereo partly shown) [Example 558]
[2]; [4]
  IC50: < 50 nM

## C[C@@H](c1ccc(Cl)cc1)N1CCN([C@H]2C3CC4CC2C[C@](O)(C4)C3)C1=O [Example 559]
[2]; [4]
  IC50: 12 nM

## CC1(C)NC2(CCN(C(=O)NC3C4CC5CC(C4)CC3C5)CC2)c2c(Cl)cccc21 (stereo not shown) [Example 560]
[2]; [4]
  IC50: < 50 nM

## O=C(c1ccc(-c2cc(Cl)c(C[C@@H]3CCN(C4CCCCC4)C3=O)c(Cl)c2)cc1)N1CCN(CCF)CC1 [Example 564]
[2]; [4]
  IC50: 115 nM

## O=C1[C@H](Cc2c(Cl)cc(-c3ccc(F)cc3)cc2Cl)CCN1C1CCc2n[nH]cc2C1 (stereo partly shown) [Example 570]
[2]; [4]
  IC50: 276 nM

## O=C(c1ccc(-c2cc(Cl)c(CN3CCC(C4CCCCC4)C3=O)c(Cl)c2)cc1)N1CCN(CCF)CC1 (stereo not shown) [Example 572]
[2]; [4]
  IC50: 15.4 nM

## C[C@@H](c1ccc2ccccc2c1)N1CCN(Cc2ccccc2)C1=O [Example 575]
[2]; [4]
  IC50: 2.9 nM

## O=C(c1cnn(C2CCNCC2)c1C1CC1)N1CC[C@@H](c2ccccc2C(F)(F)F)C1 [Example 578]
[2]; [4]
  IC50: < 30 nM

## CC(=O)N1CCC2(CC(C3(c4ccc(Cl)cc4)CC3)=NO2)C1 (stereo not shown) [Example 579]
[2]; [4]
  IC50: < 5000 nM

## O=C1OC2(CCN(C(=O)C(O)c3ccc(Br)cc3F)C2)c2ccccc21 (stereo not shown) [Example 580]
[2]; [4]
  IC50: < 1000 nM

## O=C1OC2(CCN(C(=O)Nc3ccc(Cl)cc3F)C2)c2ccccc21 (stereo not shown) [Example 581]
[2]; [4]
  IC50: < 20000 nM

## O=C(N1CCC(c2cn[nH]c2)CC1)N1CCOc2ccc(Cl)cc21 [Example 583]
[2]; [4]
  IC50: 39 nM

## Cc1ccc(C(=O)N(C2CC2)[C@H]2CC[C@H](CCO)CC2)c(F)c1 [Example 594]
[2]; [4]
  IC50: 2 nM

## C[C@@H]1CN(c2ccc(C(N)(C(F)(F)F)C(F)(F)F)cc2)CCN1S(=O)(=O)c1ccc(C(C)(O)C(F)(F)F)cc1 (stereo partly shown) [Example 596]
[2]; [4]
  IC50: < 10 nM

## Cc1ccc(S(=O)(=O)N2CCCN(c3c(Cl)cncc3Cl)CC2)cc1 [Example 597]
[2]; [4]
  IC50: 910 nM

## O=S(=O)(Cc1ccc(C(F)(F)F)cc1)N1CCN(c2ncccc2C(F)(F)F)CC1 [Example 598]
[2]; [4]
  IC50: 430 nM

## Cc1c(Cl)cccc1S(=O)(=O)N1CCC[C@H](C(=O)NC2CCCCC2)C1 [Example 600]
[2]; read-out: IC50
  IC50: 3 nM

## O=C(N[C@H]1CCCN(S(=O)(=O)c2ccc(F)c3ccccc23)C1)N1C2CCC1CC(O)C2 (stereo partly shown) [Example 601]
[2]; read-out: IC50
  IC50: 3 nM

## N#Cc1ccc(C2CCN(S(=O)(=O)Nc3cccc(N)n3)CC2)cc1 [Example 671]
[2]; read-out: Ki
  Ki: < 1 nM

## Cc1cc(N)nc(NS(=O)(=O)c2sc(-c3ccc(C#N)cc3)nc2C)c1 [Example 672]
[2]; [5]
  Ki: 2.8 nM

## CC(O)c1cccc(NS(=O)(=O)c2ccc(-c3ccc(C#N)cc3)cc2)n1 (stereo not shown) [Example 673]
[2]; [5]
  Ki: 1.8 nM

## Cc1cc(C)nc(NS(=O)(=O)N2CCN(c3ccc(C#N)cn3)CC2)c1 [Example 674]
[2]
  Ki: 0.66 nM

## O=S(=O)(Nc1ccnc(C2CC2)n1)c1ccc2ccccc2c1 [Example 680]
[2]; [6]
  IC50: 20 nM

## Cc1c(S(=O)(=O)Nc2nc(C34CC5CC(CC(C5)C3)C4)cs2)sc2ccc(Cl)cc12 [Example 681]
[2]; [6]
  IC50: 18 nM

## O=S(=O)(Nc1nc(C23CC4CC(CC(C4)C2)C3)cs1)c1cc2ccccc2s1 [Example 682]
[2]; [6]
  IC50: 42 nM

## CC1(C)CC2CC(C)(CN2C(=O)c2cc(Cl)c(N)c(Cl)c2)C1 (stereo not shown) [Example 693]
[2]; [7]
  IC50: 4 nM

## CC1(C)CC2CC(C)(CN2C(=O)c2ccc(C(C)(C)O)cc2)C1 (stereo not shown) [Example 696]
[2]; [7]
  IC50: 7 nM

## COc1cc(C(=O)N2CCC(n3c(=O)[nH]c4ccccc43)CC2)ccc1C [Example 698]
[2]; [7]
  IC50: 110 nM

## O=C(c1cnoc1-c1ccc(F)cc1)N1CCC(c2ccccc2)C1 (stereo not shown) [Example 700]
[2]; Table 5, Boyle, Current Opinion in Drug Discovery & Development 2008, 11(4), 495-511
  IC50: 8 − 10,000 nM

## O=C(N[C@H]1CCCN(S(=O)(=O)c2ccc(F)c3ccccc23)C1)N1CCC(O)CC1 [Example 703]
[2]; [7]
  IC50: 13 nM

## O=S(=O)(Cc1ccc(C(F)(F)F)cc1)N1CCN(c2ncccc2C(F)(F)F)CC1 [Example 707]
[2]; [7]
  IC50: 430 nM

## COc1ccc(S(=O)(=O)NCC(=O)c2ccc(C(C)(C)C)cc2)cc1 [Example 713]
[2]; [7]
  IC50: 82 nM

## C[C@](O)(c1ccc(C(=O)N(C2CCC(c3cccnc3)CC2)C2CC2)cc1)C(F)(F)F (stereo partly shown) [Example 714]
[2]
  IC50: 1.4 nM

## CC(C)(Oc1ccc(Cl)cc1)C(=O)N[C@@H]1[C@@H]2C[C@@H]3C[C@H]1C[C@@](CS(N)(=O)=O)(C3)C2 [N-{(E)-5-[(aminosulfonyl)methyl]-2-adamantyl}-2-(4-chlorophenoxy)-2-methyl propanamide]
[1]
  IC50: 96 nM

— patent US8871208B2, “11-β-hydroxysteroid dehydrogenase type 1 (11β-HSD1) inhibitors and uses thereof” (AbbVie Inc., priority 2009, dated 2014)
